According to ChEMBL document CHEMBL5728299, “Compounds and compositions for inhibiting the activity of SHP2” (2021):

Assay: After 30-60 minutes incubation at 25° C., the surrogate substrate DiFMUP (Invitrogen, cat #D6567) was added to the reaction and incubated at 25° C. for 30 minutes. The reaction was then quenched by the addition of 5 μl of a 160 μM solution of bpV(Phen) (Enzo Life Sciences cat #ALX-270-204). The fluorescence signal was monitored using a microplate reader (Envision, Perki-Elmer) using excitation and emission wavelengths of 340 nm and 450 nm, respectively. The inhibitor dose response curves were analyzed using normalized IC50 regression curve fitting with control based normalization.

CC1(CN)CCN(c2nnc(Sc3cccc(NC(=O)c4cnc5ccccn5c4=O)c3Cl)c(N)n2)CC1
IC50: 173 nM
